{"source": "ChEMBL document CHEMBL4316586", "about": "“A comprehensive review of salinomycin derivatives as potent anticancer and anti-CSCs agents” (Eur J Med Chem, 2019)", "key": {"JIMT-1 [1]": {"tested_on": "JIMT-1", "experiment": "Antiproliferative activity against human JIMT1 cells", "assay_type": "functional, cell-based"}, "MCF7 [2]": {"tested_on": "MCF7", "experiment": "Antiproliferative activity against human MCF7 cells", "assay_type": "functional, cell-based"}, "4T1": {"tested_on": "4T1", "experiment": "Antiproliferative activity against mouse 4T1 cells by MTT assay", "assay_type": "functional, cell-based"}, "HCC1937 [3]": {"tested_on": "HCC1937", "experiment": "Antiproliferative activity against human HCC1937 cells after 72 hrs by MTT assay", "assay_type": "functional, cell-based", "settings": "HCC1937, 72 h"}, "JIMT-1 [4]": {"tested_on": "JIMT-1", "experiment": "Antiproliferative activity against human JIMT1 cells after 72 hrs by MTT assay", "assay_type": "functional, cell-based", "settings": "JIMT-1, 72 h"}, "HCC1937 [5]": {"tested_on": "HCC1937", "experiment": "Antiproliferative activity against human HCC1937 cells", "assay_type": "functional, cell-based"}, "MCF7 [6]": {"tested_on": "MCF7", "experiment": "Antiproliferative activity against human MCF7 cells by SRB assay", "assay_type": "functional, cell-based"}, "[7]": {"experiment": "Antiproliferative activity against human LoVo/DX cells by SRB assay", "assay_type": "functional, cell-based"}, "MCF-10A": {"tested_on": "MCF-10A", "experiment": "Antiproliferative activity against human MCF10A cells by SRB assay", "assay_type": "cell-based"}, "LoVo": {"tested_on": "LoVo", "experiment": "Antiproliferative activity against human LoVo cells by SRB assay", "assay_type": "functional, cell-based"}, "JIMT-1 [8]": {"tested_on": "JIMT-1", "experiment": "Antiproliferative activity against human JIMT1 cells by SRB assay", "assay_type": "functional, cell-based"}, "SK-BR-3": {"tested_on": "SK-BR-3", "experiment": "Antiproliferative activity against human SKBR3 cells by SRB assay", "assay_type": "functional, cell-based"}, "Caco-2": {"tested_on": "Caco-2", "experiment": "Antiproliferative activity against human Caco2 cells by MTT assay", "assay_type": "functional, cell-based"}, "JIMT-1 [9]": {"tested_on": "JIMT-1", "experiment": "Antiproliferative activity against human JIMT1 cells by MTT assay", "assay_type": "functional, cell-based"}, "HT-29": {"tested_on": "HT-29", "experiment": "Antiproliferative activity against human HT-29 cells after 48 hrs by MTT assay", "assay_type": "functional, cell-based", "settings": "HT-29, 48 h"}, "HGC-27 [10]": {"tested_on": "HGC-27", "experiment": "Antiproliferative activity against human HGC27 cells after 48 hrs by MTT assay", "assay_type": "functional, cell-based", "settings": "HGC-27, 48 h"}, "[11]": {"experiment": "Antiproliferative activity against HMLER cells by MTT assay Breast cancer stem cell", "assay_type": "functional, cell-based", "settings": "Homo sapiens"}, "MDA-MB-231 [12]": {"tested_on": "MDA-MB-231", "experiment": "Antiproliferative activity against human MDA-MB-231 cells by MTT assay", "assay_type": "functional, cell-based"}, "HeLa": {"tested_on": "HeLa", "experiment": "Antiproliferative activity against human HeLa cells by MTT assay", "assay_type": "functional, cell-based"}, "HGC-27 [13]": {"tested_on": "HGC-27", "experiment": "Antiproliferative activity against human HGC27 cells by MTT assay", "assay_type": "functional, cell-based"}, "MDA-MB-231 [14]": {"tested_on": "MDA-MB-231", "experiment": "Antiproliferative activity against human MDA-MB-231 cells by SRB assay", "assay_type": "functional, cell-based"}, "U-87 MG": {"tested_on": "U-87 MG", "experiment": "Antiproliferative activity against human U87 cells by MTT assay", "assay_type": "functional, cell-based, U-87MG ATCC"}, "MCF7 [15]": {"tested_on": "MCF7", "experiment": "Antiproliferative activity against human MCF7 cells by MTT assay", "assay_type": "functional, cell-based"}, "MDA-MB-231 [16]": {"tested_on": "MDA-MB-231", "experiment": "Antiproliferative activity against human MDA-MB-231 cells after 48 hrs by MTT assay", "assay_type": "functional, cell-based", "settings": "MDA-MB-231, 48 h"}}, "data": [{"molecule": "CC[C@@H]([C@@H](O)[C@@H](C)[C@@H](O)[C@H](C)[C@@H]1O[C@@H]([C@@H](CC)C(=O)O)CC[C@@H]1C)[C@H]1O[C@]2(C=C[C@@H](O)[C@]3(CC[C@@](C)([C@H]4CC[C@](O)(CC)[C@H](C)O4)O3)O2)[C@H](C)C[C@@H]1C", "values": [{"measurement": "IC50", "setting": "JIMT-1 [1]", "result": 12.5, "unit": "µM"}, {"measurement": "IC50", "setting": "MCF7 [2]", "result": 13.7, "unit": "µM"}]}, {"molecule": "CC[C@@H](C(=O)[C@@H](C)[C@@H](O)[C@H](C)[C@@H]1O[C@@H]([C@@H](CC)C(=O)O)CC[C@@H]1C)[C@H]1O[C@]2(C=C[C@H](n3cc(-c4ccccc4C(=O)OC)nn3)[C@]3(CC[C@@](C)([C@H]4CC[C@](O)(CC)[C@H](C)O4)O3)O2)[C@H](C)C[C@@H]1C", "values": [{"measurement": "IC50", "setting": "4T1", "result": 3.83, "unit": "µM"}]}, {"molecule": "CC[C@@H](C(=O)[C@@H](C)[C@@H](O)[C@H](C)[C@@H]1O[C@@H]([C@@H](CC)C(=O)O)CC[C@@H]1C)[C@H]1O[C@]2(C=CC[C@]3(CC[C@@](C)([C@H]4CC[C@](O)(CC)[C@H](C)O4)O3)O2)[C@H](C)C[C@@H]1C", "values": [{"measurement": "IC50", "setting": "HCC1937 [3]", "result": "> 10", "unit": "µM"}, {"measurement": "IC50", "setting": "JIMT-1 [4]", "result": 1730, "unit": "nM"}]}, {"molecule": "CC[C@@H](C(=O)[C@@H](C)[C@@H](O)[C@H](C)[C@@H]1O[C@@H]([C@@H](CC)C(=O)OCC[Si](C)(C)C)CC[C@@H]1C)[C@H]1O[C@]2(C=C[C@@H](O)[C@]3(CC[C@@](C)([C@H]4CC[C@](O)(CC)[C@H](C)O4)O3)O2)[C@H](C)C[C@@H]1C", "values": [{"measurement": "IC50", "setting": "HCC1937 [5]", "result": 4.36, "unit": "µM"}]}, {"molecule": "CC[C@@H]([C@H](O)[C@@H](C)[C@@H](O)[C@H](C)[C@@H]1O[C@@H]([C@@H](CC)C(=O)O)CC[C@@H]1C)[C@H]1O[C@]2(C=C[C@@H](O)[C@]3(CC[C@@](C)([C@H]4CC[C@](O)(CC)[C@H](C)O4)O3)O2)[C@H](C)C[C@@H]1C", "values": [{"measurement": "IC50", "setting": "JIMT-1 [1]", "result": 15.6, "unit": "µM"}, {"measurement": "IC50", "setting": "MCF7 [2]", "result": 12.5, "unit": "µM"}]}, {"molecule": "CC[C@@H](C(=O)[C@@H](C)[C@@H](O)[C@H](C)[C@@H]1O[C@@H]([C@@H](CC)C(=O)O)CC[C@@H]1C)[C@H]1O[C@]2(CCC[C@]3(CC[C@@](C)([C@H]4CC[C@](O)(CC)[C@H](C)O4)O3)O2)[C@H](C)C[C@@H]1C", "values": [{"measurement": "IC50", "setting": "HCC1937 [3]", "result": "> 10", "unit": "µM"}, {"measurement": "IC50", "setting": "JIMT-1 [4]", "result": 2080, "unit": "nM"}]}, {"molecule": "CC[C@@H](C(=O)[C@@H](C)[C@@H](O)[C@H](C)[C@@H]1O[C@@H]([C@@H](CC)C(=O)O)CC[C@@H]1C)[C@H]1O[C@]2(C=C[C@@H](OC(=O)c3ccc(C(=O)O[C@@H]4C=C[C@]5(O[C@H]([C@@H](CC)C(=O)[C@@H](C)[C@@H](O)[C@H](C)[C@@H]6O[C@@H]([C@@H](CC)C(=O)O)CC[C@@H]6C)[C@@H](C)C[C@H]5C)O[C@@]45CC[C@@](C)([C@H]4CC[C@](O)(CC)[C@H](C)O4)O5)cc3)[C@]3(CC[C@@](C)([C@H]4CC[C@](O)(CC)[C@H](C)O4)O3)O2)[C@H](C)C[C@@H]1C", "values": [{"measurement": "IC50", "setting": "MCF7 [6]", "result": 1800, "unit": "nM"}, {"measurement": "IC50", "setting": "[7]", "result": 2800, "unit": "nM"}, {"measurement": "IC50", "setting": "MCF-10A", "result": 21, "unit": "µM"}, {"measurement": "IC50", "setting": "LoVo", "result": 1200, "unit": "nM"}, {"measurement": "IC50", "setting": "JIMT-1 [8]", "result": 2400, "unit": "nM"}, {"measurement": "IC50", "setting": "SK-BR-3", "result": 1000, "unit": "nM"}]}, {"molecule": "CC[C@@H](C(=O)[C@@H](C)[C@@H](O)[C@H](C)[C@@H]1O[C@@H]([C@@H](CC)C(=O)O)CC[C@@H]1C)[C@H]1O[C@]2(CC[C@@H](O)[C@]3(CC[C@@](C)([C@H]4CC[C@](O)(CC)[C@H](C)O4)O3)O2)[C@H](C)C[C@@H]1C", "values": [{"measurement": "IC50", "setting": "JIMT-1 [1]", "result": 1, "unit": "µM"}, {"measurement": "IC50", "setting": "MCF7 [2]", "result": 0.89, "unit": "µM"}]}, {"molecule": "CC[C@@H](C(=O)[C@@H](C)[C@@H](O)[C@H](C)[C@@H]1O[C@@H]([C@@H](CC)C(=O)O)CC[C@@H]1C)[C@H]1O[C@]2(C=C[C@@H](O)[C@]3(CC[C@@](C)([C@H]4CC[C@](O)(CC)[C@H](C)O4)O3)O2)[C@H](C)C[C@@H]1C", "note": "[SALINOMYCIN]", "values": [{"measurement": "IC50", "setting": "Caco-2", "result": 13, "unit": "µM"}, {"measurement": "IC50", "setting": "JIMT-1 [9]", "result": 520, "unit": "nM"}, {"measurement": "IC50", "setting": "HT-29", "result": 3.21, "unit": "µM"}, {"measurement": "IC50", "setting": "HGC-27 [10]", "result": 8.18, "unit": "µM"}, {"measurement": "IC50", "setting": "[11]", "result": 100, "unit": "nM"}, {"measurement": "IC50", "setting": "MDA-MB-231 [12]", "result": 6.91, "unit": "µM"}, {"measurement": "IC50", "setting": "[7]", "result": 690, "unit": "nM"}, {"measurement": "IC50", "setting": "HeLa", "result": 320, "unit": "nM"}, {"measurement": "IC50", "setting": "JIMT-1 [1]", "result": 0.52, "unit": "µM"}, {"measurement": "IC50", "setting": "HGC-27 [13]", "result": 2570, "unit": "nM"}, {"measurement": "IC50", "setting": "MDA-MB-231 [14]", "result": 6.42, "unit": "µM"}, {"measurement": "IC50", "setting": "U-87 MG", "result": 38.7, "unit": "µM"}, {"measurement": "IC50", "setting": "MCF7 [15]", "result": 590, "unit": "nM"}, {"measurement": "IC50", "setting": "MDA-MB-231 [16]", "result": "> 10", "unit": "µM"}]}, {"molecule": "CC[C@@H](C(=O)[C@@H](C)[C@@H](O)[C@H](C)[C@@H]1O[C@@H]([C@@H](CC)C(=O)O)CC[C@@H]1C)[C@H]1O[C@]2(C=C[C@H](n3cc(-c4ccc(Br)cc4)nn3)[C@]3(CC[C@@](C)([C@H]4CC[C@](O)(CC)[C@H](C)O4)O3)O2)[C@H](C)C[C@@H]1C", "values": [{"measurement": "IC50", "setting": "4T1", "result": 3.69, "unit": "µM"}]}]}
